SMILES strings stand for the structures. ≈ marks a conversion by molar mass, not a printed value.

One assay concerns C. albicans (ATCC 90028). Nature of the assay: Minimum inhibitory concentration, in vitro broth microdilution assay (CLSI M27-A2). It is filed as cell-based, Candida albicans. The note with it: ATCC 90028, about 50% growth reduction, 2 days at 36° C., range tested 8-0.0078 μg/mL, values given as ranges; for MIC: Candida albicans, ATCC90028, 48 h, read-out: Candida albicans MIC. The method, boiled down:
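Inoculum of 1×10^3 to 1×10^4 CFU/mL in RPMI-1640+MOPS, exposed to 11 two-fold serial compound concentrations at 2 percent final DMSO, per CLSI M27-A2. After 2 days at 36° C, wells scored visually for growth to give MIC; tested in duplicate.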
In general terms: Dilution methods test growth across graded concentrations, often in twofold steps.

The next assay concerns A. fumigatus. Nature of the assay: A. fumigatus MIC at 100% growth inhibition (CLSI M38-A2). The following applies: 100% growth inhibition, range tested 8-0.0078 μg/mL, values given as ranges; for MIC: Aspergillus fumigatus, read-out: Aspergillus fumigatus MIC. It is filed as cell-based, Aspergillus fumigatus. How it is done: A. fumigatus MICs were determined at 100% growth inhibition following CLSI guidelines at a concentration range of 8-0.0078 μg/mL (CLSI M38-A2).

For orientation: MIC means the lowest concentration found to suppress growth. Regarding `N#Cc1ccc2sc(N3CCN(c4ccc(-c5ccc(C(F)(F)[C@](O)(Cn6cnnn6)c6ccc(F)cc6F)nc5)cc4)CC3)nc2c1` [Example 76, (R)-2-(4-(4-(6-(2-(2,4-difluorophenyl)-1,1-difluoro-2-hydroxy-3-(1H-tetrazol-1-yl)propyl)pyridin-3-yl)phenyl)piperazin-1-yl) benzo [d] thiazole-5-carbonitrile], the MIC in the assay on C. albicans (ATCC 90028) is 0.0078 to 0.01 µg/mL (≈ 0.0116 to 0.0149 µM); in the assay on A. fumigatus it was > 8 µg/mL.
Take `O[C@@](Cn1cnnn1)(c1ccc(F)cc1F)C(F)(F)c1ccc(-c2ccc(N3CCN(c4ccc5nc(CC(F)(F)F)[nH]c5c4)CC3)cc2)cn1` [Example 77, (R)-2-(2,4-difluorophenyl)-1,1-difluoro-3-(1H-tetrazol-1-yl)-1-(5-(4-(4-(2-(2,2,2-trifluoroethyl)-1H-benzo [d]imidazol-6-yl)piperazin-1-yl)phenyl)pyridin-2-yl) propan-2-ol]: the minimal inhibitory concentration (MIC) with C. albicans (ATCC 90028) was in the range of 0.01 to 0.1 µg/mL (≈ 0.0141 to 0.141 µM); in the assay on A. fumigatus, 0.25 to 1 µg/mL (≈ 0.351 to 1.41 µM).
Turning to `CC(C)Cc1nc2ccc(N3CCN(c4ccc(-c5ccc(C(F)(F)[C@](O)(Cn6cnnn6)c6ccc(F)cc6F)nc5)cc4)CC3)cc2[nH]1` [Example 78, (R)-2-(2,4-difluorophenyl)-1,1-difluoro-1-(5-(4-(4-(2-isobutyl-1H-benzo [d]imidazol-6-yl)piperazin-1-yl)phenyl)pyridin-2-yl)-3-(1H-tetrazol-1-yl) propan-2-ol], the MIC in the assay on C. albicans (ATCC 90028) is 0.01 to 0.1 µg/mL (≈ 0.0146 to 0.146 µM); with A. fumigatus it was > 8 µg/mL.
Turning to `Cn1c(N2CCN(c3ccc(-c4ccc(C(F)(F)[C@](O)(Cn5cnnn5)c5ccc(F)cc5F)nc4)cc3)CC2)nc2ccc(C#N)cc21` [Example 79, (R)-2-(4-(4-(6-(2-(2,4-difluorophenyl)-1,1-difluoro-2-hydroxy-3-(1H-tetrazol-1-yl)propyl)pyridin-3-yl)phenyl)piperazin-1-yl)-1-methyl-1H-benzo [d] imidazole-6-carbonitrile], the MIC fell in the range of 0.0078 to 0.01 µg/mL (≈ 0.0117 to 0.015 µM) with C. albicans (ATCC 90028) and 0.25 to 1 µg/mL (≈ 0.374 to 1.5 µM) in the assay on A. fumigatus.
On the same counts, the results for `Cn1c(N2CCN(c3ccc(-c4ccc(C(F)(F)[C@](O)(Cn5cnnn5)c5ccc(F)cc5F)nc4)cc3)CC2)nc2cc(C#N)ccc21` [Example 80, (R)-2-(4-(4-(6-(2-(2,4-difluorophenyl)-1,1-difluoro-2-hydroxy-3-(1H-tetrazol-1-yl)propyl)pyridin-3-yl)phenyl)piperazin-1-yl)-1-methyl-1H-benzo [d] imidazole-5-carbonitrile] are 0.0078 to 0.01 µg/mL (≈ 0.0117 to 0.015 µM) and > 8 µg/mL.
Turning to `CC(C)(C)Cn1ncn(-c2ccc(N3CCN(c4ccc(-c5ccc(C(F)(F)[C@](O)(Cn6cnnn6)c6ccc(F)cc6F)nc5)cc4)CC3)cc2)c1=O` [Example 81, (R)-4-(4-(4-(4-(6-(2-(2,4-difluorophenyl)-1,1-difluoro-2-hydroxy-3-(1H-tetrazol-1-yl)propyl)pyridin-3-yl)phenyl)piperazin-1-yl)phenyl)-2-neopentyl-2,4-dihydro-3H-1,2,4-triazol-3-one], the MIC with C. albicans (ATCC 90028) is 0.0078 to 0.01 µg/mL (≈ 0.0105 to 0.0135 µM); in the assay with A. fumigatus it was 0.25 to 1 µg/mL (≈ 0.337 to 1.35 µM).
Regarding `CC[C@@H]([C@H](C)O)n1ncn(-c2ccc(N3CCN(c4ccc(-c5ccc(C(F)(F)[C@](O)(Cn6cnnn6)c6ccc(F)cc6F)nc5)cc4)CC3)cn2)c1=O` [Example 82, 4-(5-(4-(4-(6-((R)-2-(2,4-difluorophenyl)-1,1-difluoro-2-hydroxy-3-(1H-tetrazol-1-yl)propyl)pyridin-3-yl)phenyl)piperazin-1-yl)pyridin-2-yl)-2-((2S,3S)-2-hydroxypentan-3-yl)-2,4-dihydro-3H-1,2,4-triazol-3-one], in the assay with C. albicans (ATCC 90028), the “Candida albicans MIC” value lay within 0.010 to 0.10 µg/mL. In the assay with A. fumigatus, the “Aspergillus fumigatus MIC” value was in the range of 0.062 to 0.25 µg/mL.
For the compound `CC[C@@H]([C@H](C)O)N(C)C(=O)c1ccc(N2CCN(c3ccc(-c4ccc(C(F)(F)[C@](O)(Cn5cnnn5)c5ccc(F)cc5F)nc4)cc3)CC2)cc1` [Example 83, 4-(4-(4-(6-((R)-2-(2,4-difluorophenyl)-1,1-difluoro-2-hydroxy-3-(1H-tetrazol-1-yl)propyl)pyridin-3-yl)phenyl)piperazin-1-yl)-N-((2S,3S)-2-hydroxypentan-3-yl)-N-methylbenzamide], the MIC was in the range of 0.01 to 0.1 µg/mL (≈ 0.0136 to 0.136 µM) with C. albicans (ATCC 90028) and 0.25 to 1 µg/mL (≈ 0.341 to 1.36 µM) with A. fumigatus.

The values are drawn from US10464922B2, “Metalloenzyme inhibitor compounds” (NQP 1598 LTD., priority 2015, dated 2019).
